# According to BindingDB's records for doi:10.1021/acs.jmedchem.7b01708 (Duquesne University, 2018):
# Tests used:
# [1] = Binding affinity to human FR-alpha receptor expressed in Chinese hamster RT16 cells assessed as antiproliferative activity measured as reduction in cell viability after 96 hrs by Cell-Titer Blue assay
# [2] = Binding affinity to human FR-alpha receptor expressed in Chinese hamster RT16 cells assessed as antiproliferative activity measured as reduction in cell viability after 96 hrs in presence of folic acid by Cell-Titer Blue assay
# [3] = Binding affinity to human FR-beta receptor expressed in Chinese hamster D4 cells assessed as antiproliferative activity measured as reduction in cell viability after 96 hrs by Cell-Titer Blue assay
# [4] = Binding affinity to human RFC expressed in Chinese hamster PC43-10 cells assessed as antiproliferative activity measured as reduction in cell viability after 96 hrs by Cell-Titer Blue assay
# [5] = Binding affinity to human FR-beta receptor expressed in Chinese hamster D4 cells assessed as antiproliferative activity measured as reduction in cell viability after 96 hrs in presence of folic acid by Cell-Titer Blue assay
# [6] = Binding affinity to human PCFT expressed in Chinese hamster R2/PCFT4 cells assessed as antiproliferative activity measured as reduction in cell viability after 96 hrs by Cell-Titer Blue assay
SMILES,IC50 [1] [nM],IC50 [2] [nM],IC50 [3] [nM],IC50 [4] [nM],IC50 [5] [nM],IC50 [6] [nM]
Nc1nc2[nH]c(CCC#Cc3ccc(C(=O)N[C@@H](CCC(=O)O)C(=O)O)nc3)cc2c(=O)[nH]1,4.4,> 1000,19,> 1000,> 1000,> 1000
Nc1nc2[nH]c(CCCCc3ccc(C(=O)N[C@@H](CCC(=O)O)C(=O)O)nc3)cc2c(=O)[nH]1,,,,> 1000,,58
Nc1nc2[nH]c(CCC#Cc3cccc(C(=O)N[C@@H](CCC(=O)O)C(=O)O)n3)cc2c(=O)[nH]1,> 1000,> 1000,> 1000,> 1000,> 1000,> 1000
Nc1nc2[nH]c(CCCCc3ccc(C(=O)N[C@@H](CCC(=O)O)C(=O)O)cn3)cc2c(=O)[nH]1,15,> 1000,37,> 1000,> 1000,> 1000
Nc1nc2[nH]c(CCCCc3cccc(C(=O)N[C@@H](CCC(=O)O)C(=O)O)n3)cc2c(=O)[nH]1,186,> 1000,> 1000,> 1000,> 1000,
"Nc1nc2[nH]c(CCCCc3ccc(C(=O)N[C@@H](CCC(=O)O)C(=O)O)cc3)cc2c(=O)[nH]1 [N-{4-[4-(2-Amino-4-oxo-4,7-dihydro-3H-pyrrolo[2,3-d]pyrimidin-6-yl)butyl]benzoyl}-L-glutamic Acid]",,,,> 1000,,
Nc1nc2[nH]c(CCC#Cc3ccc(C(=O)N[C@@H](CCC(=O)O)C(=O)O)cn3)cc2c(=O)[nH]1,449,> 1000,839,> 1000,> 1000,> 1000
C#CCC(Cc1cnc2nc(N)nc(N)c2n1)c1ccc(C(=O)N[C@@H](CCC(=O)O)C(=O)O)cc1 (stereo partly specified) [CHEBI:71223],168,> 1000,,0.69,,57
